Source: patent US20090028818A1, “Heterocyclic antiviral compounds” (Roche Palo Alto LLC, priority 2007, published 2009)

How the values were obtained:
Human CCR5 receptor = molecular target: T1, Human CCR5 receptor (Homo sapiens, UniProt P51681); test: Human CCR5 receptor-ligand binding assay; details: CHO-Gα16-hCCR5 cells, 125I RANTES radioligand
T1 construct: expressed in transfected cells
From the text: Human CCR5 receptor (Genebank ID: 29169292) was cloned into mammalian expression vector, pTarget (Promega). The construct was transfected into CHO-Gα16 cells by using Fugene Reagent (Roche). Clones were selected under antibiotic pressure (G418 and Hygromycin) and sorted 4 times with a fluorescence activates cell sorter and a monoclonal antibody specific for CCR5 receptor (BD Biosciences Pharmigen, Mab 2D7, Cat. No. 555993). The clone with highest expression (100,000 copies per cell) was chosen for the binding assays.
Adherent cells in […] tissue culture flask (˜90% confluent) were harvested using 1 mM EDTA in PBS (phosphate-buffered saline) without Ca^2+ and Mg^2+. Cells were washed twice with PBS containing no Ca^2+ and Mg^2+. CHO-Gα16-hCCR5 cells were then resuspended (1×10^6/mL) in ice cold binding buffer (50 mM HEPES, 1 mM CaCl2, 5 mM MgCl2, 0.5% BSA, 0.05% NaN3, pH 7.24), pH 7.4), supplemented with freshly made 0.5% BSA and 0.05% NaN3.
Eighty μl CHO-Gα16-hCCR5 (1×10^6/mL) cells were added to 96 well plates. All dilutions were made in binding buffer (50 mM HEPES, 1 mM CaCl2, 5 mM MgCl2, 0.5% BSA, 0.05% NaN3, pH 7.24).
The plates were incubated on a cell shaker at RT for 2 h with a final concentration of 0.1 nM ^125I RANTES or ^125I MIP-1α or ^125I MIP-1β. The compound dilutions were made in PBS, 1% BSA. Total reaction volume was 100 μl per well. The test compounds were added to the cells prior to the addition of radioligand.
After incubation, the cells were harvested onto GF/C filter plates using Packard cell harvester. Filters were pretreated with 0.3% PEI/0.2% BSA for 30 min. The filter plate was washed rapidly 5 times with 25 mM HEPES, 500 mM NaCl, 1 mM CaCl2 and 5 mM MgCl2 adjusted to pH 7.1. Plates were dried in oven (70° C.) for 20 min, added with 40 μl scintillation fluid and sealed with Packard TopSeal-A. Packard Top Count was used to measure of the radioactivity for 1 min per well.
Total binding was determined with control wells added with radioisotope and buffer and the non-specific binding was determined using an excess cold RANTES to some of the control wells. Specific binding was determined by subtracting the non-specific form total binding. Results are expressed as the percentage of specific ^125I RANTES binding. IC50 values were determined using varying concentrations of the test ligand in triplicates and the data was analyzed using GraphPad Prism (GraphPad, San Diego, Calif.). c, […]

[1] = tested on: collagen-induced arthritis; details: collagen-induced arthritis model; cited from earlier work
NLBal pseudotyped HIV-1 = test: Antiviral assay, luciferase reporter in JC53BL cells; assay type: cell-based; details: Human immunodeficiency virus 1, JC53BL, 72 h, read-out: Antiviral Assay IC50
Protocol: The sensitivity of a recombinant HIV-1 virus pseudotyped with the envelope proteins of the CCR5-tropic virus NLBal to test compounds was determined in a Luciferase reporter assay using JC53BL cells. NLBal pseudotyped HIV-1 was generated by calcium phosphate transfection of 293T cells (ATCC) with equal amounts of DNA of an envelope-deleted HIV-1 plasmid and of a NLBal envelope expression plasmid. The media (DMEM, 10% fetal bovine serum, 1% Penicillin/streptomycin, 1% Glutamine, all Gibco) was changed 16 h post-transfection and virus containing supernatant was harvested 48 h post-transfection. To determine the sensitivity of NLBal pseudotyped HIV-1, 25.000 JC53BL cells (NIH AIDS Reagent Program) were infected with NLBal pseudotyped HIV-1 in presence of a drug gradient in white 96 well plates (Greiner Bio-one). The volume was adjusted to 200 μL using assay media (DMEM, 10% fetal bovine serum, 1% Penicillin/streptomycin, 1% Glutamine). After incubation at 37° C., 90% relative humidity, 5% CO2 for 3 days, 50 μL of Steady-Glo® Luciferase reagent (Promega) was added, incubated for 5 min at RT and luminescence was measured using a luminometer (Luminoskan, Thermo). The 50% and 90% inhibitory concentrations were calculated using Microsoft XL Fit 4 software.

T1 sequence (P51681 whole entry): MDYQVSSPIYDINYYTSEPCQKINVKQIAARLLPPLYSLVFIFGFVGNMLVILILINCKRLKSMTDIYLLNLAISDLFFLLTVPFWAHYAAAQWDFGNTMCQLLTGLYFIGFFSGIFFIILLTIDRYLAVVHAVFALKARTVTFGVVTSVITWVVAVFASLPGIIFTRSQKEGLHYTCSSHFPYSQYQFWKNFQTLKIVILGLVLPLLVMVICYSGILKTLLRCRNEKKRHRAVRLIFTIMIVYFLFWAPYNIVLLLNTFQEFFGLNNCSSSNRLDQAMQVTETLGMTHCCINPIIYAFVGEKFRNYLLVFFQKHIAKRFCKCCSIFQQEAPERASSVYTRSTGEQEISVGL

| Compound | IC50 (Human CCR5 receptor) | further results |
| --- | --- | --- |
| COC(=O)N1CCC(CN2C[C@@H](c3ccccc3)N(C3CCN(C4(C)CCN(C(=O)c5c(C)cc(C#N)nc5C)CC4)CC3)C2=O)CC1 [I-17] | 35.7 nM |  |
| TAK-779 |  | incidence and severity of arthritis [1]: reduce both the incidence and severity of arthritis |
| Cc1cc(C#N)nc(C)c1C(=O)N1CCC(C)(N2CCC(N3C(=O)N(CC4CCN(C(N)=O)CC4)C[C@H]3c3ccccc3)CC2)CC1 [I-21, 4-{(R)-3-[1′-(6-Cyano-2,4-dimethyl-pyridine-3-carbonyl)-4′-methyl-[1,4′]bipiperidinyl-4-yl]-2-oxo-4-phenyl-imidazolidin-1-ylmethyl}-piperidine-1-carboxylic acid amide] | 44 nM |  |
| Cc1noc(C(F)(F)F)c1C(=O)N1CCC(C)(N2CCC(N3C(=O)N(CC4CCOCC4)C[C@H]3c3ccccc3)CC2)CC1 [I-8] | 5.1 nM |  |
| CCO[C@H]1CC[C@H](CN2C[C@@H](c3ccccc3)N(C3CCN(C4(C)CCN(C(=O)c5c(C)cc(C#N)nc5C)CC4)CC3)C2=O)CC1 [I-10] | 10.6 nM |  |
| CCCCC1CN(CC2CCOCC2)C(=O)N1C1CCN(C2(C)CCN(C(=O)c3c(C)cc(C#N)nc3C)CC2)CC1 (stereo not shown) [I-4] | 4.4 nM |  |
| Cc1cc(C#N)nc(C)c1C(=O)N1CCC(C)(N2CCC(N3C(=O)N(C4CCC(O)CC4)C[C@H]3c3ccccc3)CC2)CC1 (stereo partly drawn) [I-23, 5-{4-[(R)-3-(4-Hydroxy-cyclohexyl)-2-oxo-5-phenyl-imidazolidin-1-yl]-4′-methyl-[1,4′]bipiperidinyl-1′-carbonyl}-4,6-dimethyl-pyridine-2-carbonitrile] | 20.6 nM |  |
| CCO[C@H]1CC[C@H](CN2C[C@@H](c3ccccc3)N(C3CCN(C4(C)CCN(C(=O)c5c(C)noc5C(F)(F)F)CC4)CC3)C2=O)CC1 [I-11] | 6.8 nM |  |
| Cc1ncnc(C)c1C(=O)N1CCC(C)(N2CCC(N3C(=O)N(CC4CCN(CC(F)F)CC4)C[C@H]3c3ccccc3)CC2)CC1 [I-14, (R)-1-[1-(2,2-Difluoro-ethyl)-piperidin-4-ylmethyl]-3-[1′-(4,6-dimethyl-pyrimidine-5-carbonyl)-4′-methyl-[1,4′]bipiperidinyl-4-yl]-4-phenyl-imidazolidin-2-one] | 26.4 nM |  |
| CCCCC1CN(C2CCOCC2)C(=O)N1C1CCN(C2(C)CCN(C(=O)c3c(C)cc(C#N)nc3C)CC2)CC1 (stereo not shown) [I-1, 5-{4-[5-Butyl-2-oxo-3-(tetrahydro-pyran-4-yl)-imidazolidin-1-yl]-4′-methyl-[1,4′]bipiperidinyl-1′-carbonyl}-4,6-dimethyl-pyridine-2-carbonitrile] | 8.5 nM | IC50 (NLBal pseudotyped HIV-1): 19.8 nM |
| COC(=O)N1CCC(CN2C[C@@H](c3ccccc3)N(C3CCN(C4(C)CCN(C(=O)c5c(C)ncnc5C)CC4)CC3)C2=O)CC1 [I-16, 4-{(R)-3-[1′-(4,6-Dimethyl-pyrimidine-5-carbonyl)-4′-methyl-[1,4′]bipiperidinyl-4-yl]-2-oxo-4-phenyl-imidazolidin-1-ylmethyl}-piperidine-1-carboxylic acid methyl ester] | 25.8 nM |  |
| Cc1cc(C#N)nc(C)c1C(=O)N1CCC(C)(N2CCC(N3C(=O)N(C4CCOCC4)C[C@H]3c3ccccc3)CC2)CC1 [I-12] | 90 nM |  |
| Cc1ncnc(C)c1C(=O)N1CCC(C)(N2CCC(N3C(=O)N(CC4CCOCC4)CC3c3cccc(F)c3)CC2)CC1 (stereo not shown) [I-27] | 89.4 nM |  |
| Cc1ncnc(C)c1C(=O)N1CCC(C)(N2CCC(N3C(=O)N(CC4CCN(S(C)(=O)=O)CC4)C[C@H]3c3ccccc3)CC2)CC1 [I-19] | 117 nM |  |
| Cc1noc(C(F)(F)F)c1C(=O)N1CCC(C)(N2CCC(N3C(=O)N(C[C@H]4CC[C@H](O)CC4)C[C@H]3c3ccccc3)CC2)CC1 [I-24, (R)-1-(4-Hydroxy-cyclohexylmethyl)-3-[4′-methyl-1′-(3-methyl-5-trifluoromethyl-isoxazole-4-carbonyl)-[1,4′]bipiperidinyl-4-yl]-4-phenyl-imidazolidin-2-one] | 7.1 nM |  |
| CCO[C@H]1CC[C@H](CN2C[C@@H](c3ccccn3)N(C3CCN(C4(C)CCN(C(=O)c5c(C)cc(C#N)nc5C)CC4)CC3)C2=O)CC1 [I-26, 5-{4-[(S)-3-(4-Ethoxy-cyclohexylmethyl)-2-oxo-5-pyridin-2-yl-imidazolidin-1-yl]-4′-methyl-[1,4′]bipiperidinyl-1′-carbonyl}-4,6-dimethyl-pyridine-2-carbonitrile] | 24.7 nM |  |
| Cc1cc(C#N)nc(C)c1C(=O)N1CCC(C)(N2CCC(N3C(=O)N(CC4CCOCC4)C[C@H]3c3ccccc3)CC2)CC1 [I-7] | 11.2 nM |  |
| CCO[C@H]1CC[C@H](CN2C[C@@H](c3ccccc3)N(C3CCN(C4(C)CCN(C(=O)c5c(C)ncnc5C)CC4)CC3)C2=O)CC1 [I-9] | 12.6 nM |  |
| Cc1cc(C#N)nc(C)c1C(=O)N1CCC(C)(N2CCC(N3C(=O)N(CC4CCN(CC(F)F)CC4)C[C@H]3c3ccccc3)CC2)CC1 [I-15] | 18.3 nM |  |
| Cc1cc(C#N)nc(C)c1C(=O)N1CCC(C)(N2CCC(N3C(=O)N(CC4CCOC4)CC3c3ccccc3)CC2)CC1 (stereo not shown) [I-25] | 54.4 nM |  |
| CCCCC1CN(C2CCOCC2)C(=O)N1C1CCN(C2(C)CCN(C(=O)c3c(C)ncnc3C)CC2)CC1 (stereo not shown) [I-2] | 969 nM |  |
| Cc1cc(C#N)nc(C)c1C(=O)N1CCC(C)(N2CCC(N3C(=O)N(CC4CCN(S(C)(=O)=O)CC4)C[C@H]3c3ccccc3)CC2)CC1 [I-18, 5-{4-[(R)-3-(1-Methanesulfonyl-piperidin4-ylmethyl)-2-oxo-5-phenyl-imidazolidin-1-yl]-4′-methyl-[1,4′]bipiperidinyl-1′-carbonyl}-4,6-dimethyl-pyridine-2-carbonitrile] | 36.6 nM |  |
| Cc1ncnc(C)c1C(=O)N1CCC(C)(N2CCC(N3C(=O)N(CC4CCOCC4)CC3c3ccccc3)CC2)CC1 (stereo not shown) [I-6, 3-[1′-(4,6-Dimethyl-pyrimidine-5-carbonyl)-4′-methyl-[1,4′]bipiperidinyl-4-yl]-4-phenyl-1-(tetrahydro-pyran4-ylmethyl)-imidazolidin-2-one] | 27.5 nM |  |
| CC(=O)N1CCC(CN2C[C@@H](c3ccccc3)N(C3CCN(C4(C)CCN(C(=O)c5c(C)cc(C#N)nc5C)CC4)CC3)C2=O)CC1 [I-20, 5-{4-[(R)-3-(1-Acetyl-piperidin-4-ylmethyl)-2-oxo-5-phenyl-imidazolidin-1-yl]-4′-methyl-[1,4′]bipiperidinyl-1′-carbonyl}-4,6-dimethyl-pyridine-2-carbonitrile] | 42.5 nM |  |
| Cc1ncnc(C)c1C(=O)N1CCC(C)(N2CCC(N3C(=O)N(CC4CCOCC4)C[C@H]3c3ccccc3)CC2)CC1 [I-5, (R)-3-[1′-(4,6-Dimethyl-pyrimidine-5-carbonyl)-4′-methyl-[1 ,4′]bipiperidinyl-4-yl]-4-phenyl-1-(tetrahydro-pyran-4-ylmethyl)-imidazolidin-2-one] | 23.7 nM |  |
| CCCCC1CN(CC2CCOCC2)C(=O)N1C1CCN(C2(C)CCN(C(=O)c3c(C)ncnc3C)CC2)CC1 (stereo not shown) [I-3, 4-Butyl-3-[1′-(4,6-dimethyl-pyriridine-5-carbonyl)-4′-methyl-[1,4′]bipiperidinyl-4-yl]-1-(tetrahydro-pyran-4-ylmethyl)-imidazolidin-2-one] | 110 nM |  |
| Cc1ncnc(C)c1C(=O)N1CCC(C)(N2CCC(N3C(=O)N(C4CCOCC4)C[C@H]3c3ccccc3)CC2)CC1 [I-13] | 90 nM |  |
